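Dose response: 5 concentrations. Exposure: 48 h. Format: 96-well plates. Endpoint: linear interpolation; highest concentration if not reached. At the GI50, growth is halved.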 Active and inactive are the calls of the source. No stated cut-off is given here; in the data, active = GI50 up to about 1.1 µM and inactive = higher.
Legend:
Assay in all cases: inhibition of tumour cell growth, NCI panel, 48 h
[1] = tested on: ACHN
[2] = tested on: CCRF-CEM
[3] = tested on: HCC 2998
[4] = tested on: HCT-116
[5] = tested on: MOLT-4
[6] = tested on: NCI-H226
[7] = tested on: NCI-H460
[8] = tested on: NCI-H522
[9] = tested on: RXF 393
[10] = tested on: SF-295
[11] = tested on: SF-539
[12] = tested on: SK-MEL-2
[13] = tested on: SNB-19
[14] = tested on: TK-10
[15] = tested on: UO-31
[16] = tested on: 786-0
[17] = tested on: CAKI-1
[18] = tested on: RPMI-8226
[19] = tested on: COLO 205

Measured: GI50

O=C(NN1C(=O)C(Cl)C1c1cccc(O)c1)c1ccccc1O (stereo not given)
inactive: [1] > 100 µM | [2] > 100 µM | [3] > 100 µM | [4] > 100 µM | [5] > 100 µM | [6] > 100 µM | [7] > 100 µM | [8] > 100 µM | [9] > 100 µM | [10] > 100 µM | [11] > 100 µM | [12] > 100 µM | [13] > 100 µM | [14] > 100 µM | [15] > 100 µM

COc1cc2c(cc1O)C(=O)O[C@@H]1CC=C3CCN(C)[C@H]3[C@H]21
inactive: [16] > 25 µM | [1] > 25 µM | [17] > 25 µM | [2] > 25 µM | [3] > 25 µM | [4] > 25 µM | [5] > 25 µM | [6] > 25 µM | [8] > 25 µM | [18] > 25 µM | [9] > 25 µM | [10] > 25 µM | [12] > 25 µM | [13] > 25 µM | [14] > 25 µM | [15] > 25 µM

[O-][S+](Nc1ccccc1)c1ccc(Cl)cc1 (stereo not given)
inactive: [16] > 100 µM | [1] > 100 µM | [17] > 100 µM | [2] 89.9 µM | [19] > 100 µM | [3] 69.7 µM | [4] 61.5 µM | [5] 31.4 µM | [6] > 100 µM | [7] 56 µM | [8] 73.3 µM | [18] > 100 µM | [10] > 100 µM | [11] 18.9 µM | [12] > 100 µM | [13] > 100 µM | [14] > 100 µM | [15] 44.8 µM

CO[C@@]12C[C@@H](CNC(=O)c3cc(Br)c[nH]3)O[C@@H]1NC(=O)N2
inactive: [16] > 100 µM | [1] > 100 µM | [17] > 100 µM | [2] > 100 µM | [19] > 100 µM | [4] > 100 µM | [6] > 100 µM | [7] > 100 µM | [8] > 100 µM | [18] > 100 µM | [9] > 100 µM | [10] > 100 µM | [11] > 100 µM | [12] > 100 µM | [13] > 100 µM | [14] > 100 µM | [15] > 100 µM

O=c1[nH]nc(Cc2ccccc2)n1CCCl
inactive: [16] > 100 µM | [17] > 100 µM | [2] > 100 µM | [19] > 100 µM | [3] > 100 µM | [4] > 100 µM | [5] > 100 µM | [6] > 100 µM | [7] > 100 µM | [18] > 100 µM | [9] 90.8 µM | [10] > 100 µM | [11] > 100 µM | [12] > 100 µM | [13] > 100 µM | [15] > 100 µM

S=C(Nc1ccccc1)c1ccc(CN2CCCCC2)s1
inactive: [16] 17.6 µM | [1] 45 µM | [17] 20.7 µM | [2] 16.4 µM | [19] 18.7 µM | [3] 21.8 µM | [4] 17.5 µM | [5] 16.1 µM | [7] 21.6 µM | [8] 17.8 µM | [18] 21.7 µM | [10] 18.5 µM | [11] 37.8 µM | [12] 20.5 µM | [13] 20.2 µM | [15] 16.2 µM

COC(=O)C12CCCN1CCC2
inactive: [16] > 100 µM | [1] > 100 µM | [17] > 100 µM | [2] > 100 µM | [19] > 100 µM | [3] > 100 µM | [4] > 100 µM | [5] > 100 µM | [6] > 100 µM | [7] > 100 µM | [8] > 100 µM | [9] > 100 µM | [10] > 100 µM | [12] > 100 µM | [13] > 100 µM | [14] > 100 µM | [15] > 100 µM
